Columns and labels:
[1] = tested on: β-catenin-TCF-mediated reporter transcription activity in Colo 205 cells; experiment: Colo 205 reporter assay (TCF/LEF luciferase); assay type: cell-based; conditions: Homo sapiens, COLO 205, 5 h, Colo 205 TCF/LEF luciferase reporter, five hours after addition of compound; read-out: TCF reporter Colo205 IC50
How it was run: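 Luciferase signal from a TCF/LEF-driven reporter, stably integrated in Colo 205 colon cancer cells, was measured 5 h after compound addition.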

Hek293 empty vector = experiment: In vitro cell viability (CellTiter-Glo), Hek293 empty vector; assay type: cell-based; conditions: Homo sapiens, HEK293; read-out: Hek293 empty vector viability
How it was run: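 HEK293 cells stably transduced with empty pCLPCX retroviral vector (puromycin-selected), seeded 1,000 cells/well, treated next day with compounds at various concentrations. Viability read by CellTiter-Glo luminescence 96 hrs after compound addition; IC50 derived.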

| Structure (SMILES) | IC50 [1] [nM] | IC50 (Hek293 empty vector) [nM] |
| --- | --- | --- |
| Cc1nc(NCc2cnn(Cc3ccnc(C(F)(F)F)c3)c2)nc2c1NC(=O)[C@H](C)N2C [Compound 207, (7S)-4,7,8-trimethyl-2-(((1-((2-(trifluoromethyl)pyridin-4-yl)methyl)-1H-pyrazol-4-yl)methyl)amino)-7,8-dihydropteridin-6(5H)-one] | < 300 | ≥ 3000 |
| Cc1nc(N[C@H]2C[C@@H](COc3ccc(C(F)(F)F)cn3)C2)nc2c1NC(=O)[C@H](C)N2C [Compound 356, (7S)-4,7,8-trimethyl-2-((cis-3-(((5-(trifluoromethyl)pyridin-2-yl)oxy)methyl)cyclobutyl)amino)-7,8-dihydropteridin-6(5H)-one] | 300 to 1000 | ≥ 3000 |
| Cc1nc(NCc2cnn(Cc3ccc(C(F)(F)F)nc3)c2)nc2c1NC(=O)[C@H](C)N2C(C)C [Compound 385, (7S)-8-isopropyl-4,7-dimethyl-2-(((1-((6-(trifluoromethyl)pyridin-3-yl)methyl)-1H-pyrazol-4-yl)methyl)amino)-7,8-dihydropteridin-6(5H)-one] | < 300 | ≥ 3000 |
| Cc1nc(NCc2cnn(Cc3ccc(C(F)(F)F)nc3C(C)(C)O)c2)nc2c1NC(=O)[C@H](C)N2C [Compound 416, (7S)-2-(((1-((2-(2-hydroxypropan-2-yl)-6-(trifluoromethyl)pyridin-3-yl)methyl)-1H-pyrazol-4-yl)methyl)amino)-4,7,8-trimethyl-7,8-dihydropteridin-6(5H)-one] | < 300 | ≥ 3000 |
| Cc1nc(NCc2cnn(CCc3ccc(F)cc3)c2)nc2c1N(C)C(=O)[C@H](C)N2C [Compound 8, (7S)-2-(((1-(4-fluorophenethyl)-1H-pyrazol-4-yl)methyl)amino)-4,5,7,8-tetramethyl-7,8-dihydropteridin-6(5H)-one] | 300 to 1000 | ≥ 3000 |
| Cc1nc(NCc2cnn(Cc3ccc(C(F)(F)F)nc3C(C)C)c2)nc2c1NC(=O)[C@H](C)N2C [Compound 388, (7S)-2-(((1-((2-isopropyl-6-(trifluoromethyl)pyridin-3-yl)methyl)-1H-pyrazol-4-yl)methyl)amino)-4,7,8-trimethyl-7,8-dihydropteridin-6(5H)-one] | < 300 | ≥ 3000 |
| Cc1nc(NCc2cn(Cc3ccc(C(F)(F)F)nc3)nc2Br)nc2c1NC(=O)[C@H](C)N2C [Compound 412, (S)-2-(((3-bromo-1-((6-(trifluoromethyl)pyridin-3-yl)methyl)-1H-pyrazol-4-yl)methyl)amino)-4,7,8-trimethyl-7,8-dihydropteridin-6(5H)-one] | < 300 | ≥ 3000 |

More lines, main results first:

| IC50 [1] [nM] | Structure (SMILES) | IC50 (Hek293 empty vector) [nM] |
| --- | --- | --- |
| < 300 | Cc1nc(NCc2cnn(Cc3ccc(F)nc3)c2)nc2c1NC(=O)[C@H](C)N2C [Compound 77] | ≥ 3000 |
| < 300 | Cc1nc(NCc2cnn(Cc3ccc(C(F)(F)F)nc3Cl)c2)nc2c1NC(=O)[C@H](C)N2C [Compound 418, (7S)-2-(((1-((2-chloro-6-(trifluoromethyl)pyridin-3-yl)methyl)-1H-pyrazol-4-yl)methyl)amino)-4,7,8-trimethyl-7,8-dihydropteridin-6(5H)-one] | ≥ 3000 |
| < 300 | Cc1nc(NCc2cnn(Cc3ccc(F)cc3)c2)nc2c1N(C)C(=O)[C@H](C)N2C [Compound 1, (7S)-2-(((1-(4-fluorobenzyl)-1H-pyrazol-4-yl)methyl)amino)-4,5,7,8-tetramethyl-7,8-dihydropteridin-6(5H)-one] | ≥ 3000 |
| < 300 | Cc1nc(NCc2cnn(Cc3ccc(C(F)(F)F)cc3)c2)nc2c1NC(=O)[C@H](C)N2C [Compound 149, (7S)-4,7,8-trimethyl-2-(((1-(4-(trifluoromethyl)benzyl)-1H-pyrazol-4-yl)methyl)amino)-7,8-dihydropteridin-6(5H)-one] | ≥ 3000 |
